We go through 9 compounds from ChEMBL document CHEMBL1131909, “Synthesis and biological activities of position one and three transposed analogs of the opioid peptide YKFA” (Bioorg Med Chem Lett, 1999).

The structures appear in SMILES notation. pIC50, pKi: −log10 of the molar value.

The target of experiment [1] is T1, Mu-type opioid receptor (Cavia porcellus, UniProt P97266). Description: Compound was tested for moderate potency against mu opioid receptor in guinea pig ileum. The class given is tissue-based.
T1 sequence (P97266 whole entry): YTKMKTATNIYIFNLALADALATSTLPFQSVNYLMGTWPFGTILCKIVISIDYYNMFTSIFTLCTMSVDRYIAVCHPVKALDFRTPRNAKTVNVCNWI
In experiment [2] the target is T1, Mu-type opioid receptor. Nature of the experiment: In vitro mu opioid activity was determined by its ability to inhibit the electrically induced contractions of smooth muscle preparations in guinea pig ileum (GPI). Type of experiment: functional, tissue-based.
The target in experiment [3] is Delta-type opioid receptor (Mus musculus, UniProt P32300). Description: In vitro delta opioid activity was determined by its ability to inhibit the electrically induced contractions of smooth muscle preparations in mouse vas deferens (MVD). The class given is functional, tissue-based.
Sequence of Delta-type opioid receptor (P32300 whole entry): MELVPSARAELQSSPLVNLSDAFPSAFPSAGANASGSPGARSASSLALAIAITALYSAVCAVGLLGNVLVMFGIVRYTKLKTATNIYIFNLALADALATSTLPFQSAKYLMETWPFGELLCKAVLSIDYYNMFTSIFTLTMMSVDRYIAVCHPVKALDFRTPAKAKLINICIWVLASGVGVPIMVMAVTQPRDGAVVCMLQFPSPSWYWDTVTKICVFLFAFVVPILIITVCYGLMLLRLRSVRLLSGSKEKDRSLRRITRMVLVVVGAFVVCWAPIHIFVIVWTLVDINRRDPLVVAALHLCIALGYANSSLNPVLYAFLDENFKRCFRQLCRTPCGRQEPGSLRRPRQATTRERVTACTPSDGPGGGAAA
The target of experiment [4] is T1, Mu-type opioid receptor. Description: Compound was tested for its ability to activate mu opioid receptor in GPI bioassay.
Experiment [5] has as its target Mu-type opioid receptor (Homo sapiens, UniProt P35372). Description: Compound was tested for binding affinity against mu opioid receptor binding assay.

Sequence of Mu-type opioid receptor (Homo sapiens, UniProt P35372) (P35372 whole entry): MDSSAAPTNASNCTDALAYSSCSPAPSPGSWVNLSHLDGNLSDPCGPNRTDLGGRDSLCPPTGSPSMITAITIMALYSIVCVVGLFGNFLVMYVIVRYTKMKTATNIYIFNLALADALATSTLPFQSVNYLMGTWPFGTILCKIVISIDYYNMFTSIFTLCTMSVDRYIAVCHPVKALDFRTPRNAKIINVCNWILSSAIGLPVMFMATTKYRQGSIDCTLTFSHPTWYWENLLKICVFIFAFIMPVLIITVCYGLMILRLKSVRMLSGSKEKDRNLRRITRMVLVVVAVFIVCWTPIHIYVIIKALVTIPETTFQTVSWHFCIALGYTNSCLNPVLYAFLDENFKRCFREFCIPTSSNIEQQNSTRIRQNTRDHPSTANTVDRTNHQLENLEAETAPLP

As for `NC(=O)[C@H]1CSSC[C@@H](NC(=O)[C@@H](N)Cc2ccccc2)C(=O)NCC(=O)N[C@@H](Cc2ccc([N+](=O)[O-])cc2)C(=O)N1`, the pIC50 at Mu-type opioid receptor [1] is 7.89. For the compound `N[C@@H](Cc1ccccc1)C(=O)N[C@@H]1CCCCNC(=O)[C@H](Cc2cc3ccccc3[nH]2)NC(=O)[C@H](Cc2ccc(O)cc2)NC1=O`, the pIC50 against Mu-type opioid receptor [2] is 7.75; in experiment [3], 6.64.

With `N[C@H](Cc1ccccc1)C(=O)N[C@@H]1CCCCNC(=O)[C@H](Cc2cc3ccccc3[nH]2)NC(=O)[C@H](Cc2ccc(O)cc2)NC1=O`, the results for the pIC50 (against Mu-type opioid receptor [2]; in experiment [3]) were 6.20 and 5.09, respectively.

In the case of `CC1(C)SSC[C@@H](NC(=O)[C@@H](N)Cc2ccccc2)C(=O)N[C@@H](Cc2ccccc2)C(=O)N[C@H]1C(N)=O`, the pIC50 against Mu-type opioid receptor [4] is 8.04. The same compound had a pKi at Mu-type opioid receptor [5] of 7.87. At Mu-type opioid receptor [5], `CC1(C)SSC[C@@H](NC(=O)[C@@H](N)Cc2ccc(O)cc2)C(=O)N[C@@H](Cc2ccccc2)C(=O)N[C@H]1C(N)=O` showed a pKi of 9.54. Regarding `NC(=O)[C@H]1CSSC[C@@H](NC(=O)[C@@H](N)Cc2ccccc2)C(=O)NCC(=O)N[C@@H](Cc2ccccc2)C(=O)N1`, the pIC50 at Mu-type opioid receptor [1] is 7.38.

For the compound `CC1NC(=O)[C@H](Cc2ccc(O)cc2)NC(=O)[C@H](NC(=O)[C@@H](N)Cc2ccccc2)CCCCNC1=O` (single isomer, unassigned), the figures for the pIC50 (on Mu-type opioid receptor [2]; in experiment [3]) were 7.52 and 6.44, respectively. For `CC1NC(=O)[C@H](Cc2ccc(O)cc2)NC(=O)[C@H](NC(=O)[C@H](N)Cc2ccccc2)CCCCNC1=O` (single isomer, unassigned) the same measures were 5.74 and 5.03. The matching figures for `CC1NC(=O)[C@H](Cc2ccccc2)NC(=O)[C@H](NC(=O)[C@@H](N)Cc2ccc(O)cc2)CCCCNC1=O` (single isomer, unassigned): 9.96 and 9.27.
